≈ marks a conversion by molar mass, not a printed value.
What was measured:
[1] = GLP 14-day repeat-dose safety study in dog; type: in vivo
Excerpt: The guidance states that the MRSD must be derived from the no observable adverse effect level (NOAEL) obtained in Good Laboratory Practice (GLP) nonclinical animal safety studies. […] Estimation of the human equivalent dose (HED) at the NOAEL is based on both a surface area conversion factor (SACF) and the data from these studies.

[2] = system: cochlear function, vestibular function; experiment: First-in-human phase 1 study: cochlear and vestibular function (ototoxicity); type: in vivo; settings: healthy volunteers
Experimental: Safety evaluation was based on clinical observations, vital sign measurements, laboratory tests, physical examination, electrocardiogram, cochlear function, vestibular function testing, and reported adverse events. Cochlear function was evaluated by pure tone audiometry with bone conduction and otoacoustic emission (OAE) testing. Vestibular function was evaluated by electronystagmography (ENG) and Dynamic Visual Acuity (DVA) test. Laboratory tests included complete blood count (CBC), serum chemistries, and urinalysis. BUN and creatinine (Cr) were assessed daily on dosing days to allow the Investigator to monitor renal function. Results were used as criteria for dose escalation. The glomerular filtration rate (GFR) was estimated using iothalamate plasma measurements before dosing and after the multiple dose periods. GFR was also assessed by Cr clearance before dosing and after the multiple dose periods.
Complete physical examinations and ECGs were completed at screen and 2 days after the last multiple-dose. Abbreviated physical examinations were completed prior to the single-dose and prior to the first multiple-dose (those receiving IMP for 10 days have an additional examination prior to the 6th multiple-dose infusion). Vital signs were assessed at screen and all visits during treatment period. Additional safety assessments, including pure tone audiometry and ENG caloric, testing was performed or will be performed at 3 and 6 months after the last dose. Concomitant therapies and adverse events are assessed throughout the screen and treatment period.

Acinetobacter spp. (ACB) = experiment: MIC, CLSI broth microdilution, worldwide isolates: Acinetobacter spp.; type: cell-based
Excerpt: In the first study, a total of 235 isolates were collected from medical centers worldwide and tested for susceptibility to Compound 1 and comparator agents by CLSI broth microdilution methods. […] Non-ENT GN pathogens included WT P. aeruginosa (PSA) and Acinetobacter spp. (ACB), and carbapenem (CARB)-R strains, including those with MBL and OXA enzymes, SA and coagulase-negative staphylococci (CoNS) included oxacillin-susceptible (MSSA/MS-CoNS) and —R (MRSA/MR-CoNS) strains.
Minimum inhibitory concentrations (MIC) were determined by reference Clinical and Laboratory Standards Institute (CLSI) broth microdilution methods per M7-A7 [2006]. Briefly, serial two-fold dilutions of Compound 1 and comparator AGs (together, “the test compounds”) were prepared at 2× concentration in appropriate diluent. The dilutions were mixed in 96-well assay plates with bacterial inoculum. Bacteria were suspended in sterile saline and added to each assay plate to obtain a final concentration of 5.5×10^5 CFU/mL. The plates were incubated at 35° C. for 20 hours in ambient air. […] After incubation, assay plates were read using a microtiter plate reader at 600 nm.

[3] = Phase 1 study 15 mg/kg/day once daily for five days: pharmacokinetics; type: in vivo; settings: human
Experimental: An additional randomized, double-blind, placebo-controlled study was performed to assess the safety and pharmacokinetics of Compound 1 following IV administration to healthy adult volunteers according to a high dose, short course regimen of 15 mg/kg/day of Compound 1 administered once daily for five days. Compound 1 was formulated as a sterile solution at a concentration of 50 mg/mL in 10 mL glass vials for intravenous (IV) administration (“Compound 1 Injection”). Eight healthy subjects were randomized to receive either Compound 1 Injection or placebo administered IV by 10 minute infusion daily for five days. Seven subjects received 5 doses and one received 3 doses (early withdrawal for personal reasons).

[4] = system: 5 major human cytochrome P450 isoforms (CYPs); experiment: Inhibition of cytochrome P450 isoforms in vitro; type: in vitro ADME
[5] = In vitro stability in plasma, microsomes and hepatocytes; type: in vitro ADME; settings: liver microsomes and hepatocytes
Experimental: Bioanalytical data analyses were carried out using Analyst software (version 1.4.1, Applied Biosystems, Toronto, ON, Canada). […] PK parameters were determined by noncompartmental analysis using WinNonLin. Plasma protein binding was determined using equilibrium dialysis. In vitro stability was determined using commercially available plasma, microsomes and hepatocytes.

[6] = after 5 days of once-daily IV 15 mg/kg
[7] = plasma, after 5 days of once-daily IV 15 mg/kg

SMILES: CN[C@@H]1[C@@H](O)[C@@H](O[C@@H]2[C@@H](O)[C@H](O[C@H]3OC(CNCCO)=CC[C@H]3N)[C@@H](N)C[C@H]2NC(=O)[C@@H](O)CCN)OC[C@]1(C)O [Compound 1, 6′-(2-Hydroxy-ethyl)-1-(4-amino-2(S)-hydroxy-butyryl)-sisomicin]
- NOAEL at 14 days ([1]; dog, in vivo): 3 mg/kg
- HED ([1]; from dog NOAEL, SACF 1.8): 1.7 mg/kg
- new toxicities ([1]; nonclinical GLP safety studies in dogs): no new toxicities apart from those already known to the class
- cardiac or respiratory safety signals ([1]; nonclinical GLP studies in dogs): no cardiac or respiratory safety signals
- cochlear function (pure tone audiometry, bone conduction, OAE) [2]: did not reveal any treatment related effects
- ototoxicity signal [2]: No ototoxocity signal
- vestibular function (ENG and DVA) [2]: did not reveal any treatment related effects
- Cumulative % inhibited at Cmpd. MIC 1 (Acinetobacter spp. (ACB); ACB (30)): 10.0%
- Cumulative % inhibited at Cmpd. MIC 2 (Acinetobacter spp. (ACB); ACB (30)): 23.3%
- Cumulative % inhibited at Cmpd. MIC 4 (Acinetobacter spp. (ACB); ACB (30)): 26.7%
- Cumulative % inhibited at Cmpd. MIC 8 (Acinetobacter spp. (ACB); ACB (30)): 66.7%
- Cumulative % inhibited at Cmpd. MIC 16 (Acinetobacter spp. (ACB); ACB (30)): 70.0%
- Cumulative % inhibited at Cmpd. MIC 32 (Acinetobacter spp. (ACB); ACB (30)): 90.0%
- Cumulative % inhibited at Cmpd. MIC 64 (Acinetobacter spp. (ACB); ACB (30)): 100.0%
- Cumulative % inhibited at Cmpd. MIC ≦0.5 (Acinetobacter spp. (ACB); ACB (30)): 3.3%
- Cumulative % inhibited at Cmpd. MIC 1 (Acinetobacter spp. (ACB); ACB, CARB-R (20)): 15.0%
- Cumulative % inhibited at Cmpd. MIC 2 (Acinetobacter spp. (ACB); ACB, CARB-R (20)): 30.0%
- Cumulative % inhibited at Cmpd. MIC 4 (Acinetobacter spp. (ACB); ACB, CARB-R (20)): 30.0%
- Cumulative % inhibited at Cmpd. MIC 8 (Acinetobacter spp. (ACB); ACB, CARB-R (20)): 70.0%
- Cumulative % inhibited at Cmpd. MIC 16 (Acinetobacter spp. (ACB); ACB, CARB-R (20)): 75.0%
- Cumulative % inhibited at Cmpd. MIC 32 (Acinetobacter spp. (ACB); ACB, CARB-R (20)): 95.0%
- Cumulative % inhibited at Cmpd. MIC 64 (Acinetobacter spp. (ACB); ACB, CARB-R (20)): 100.0%
- Cumulative % inhibited at Cmpd. MIC ≦0.5 (Acinetobacter spp. (ACB); ACB, CARB-R (20)): 5.0%
- Cumulative % inhibited at Cmpd. MIC 1 (Acinetobacter spp. (ACB); ACB, WT (10)): 0.0%
- Cumulative % inhibited at Cmpd. MIC 2 (Acinetobacter spp. (ACB); ACB, WT (10)): 10.0%
- Cumulative % inhibited at Cmpd. MIC 4 (Acinetobacter spp. (ACB); ACB, WT (10)): 20.0%
- Cumulative % inhibited at Cmpd. MIC 8 (Acinetobacter spp. (ACB); ACB, WT (10)): 60.0%
- Cumulative % inhibited at Cmpd. MIC 16 (Acinetobacter spp. (ACB); ACB, WT (10)): 60.0%
- Cumulative % inhibited at Cmpd. MIC 32 (Acinetobacter spp. (ACB); ACB, WT (10)): 80.0%
- Cumulative % inhibited at Cmpd. MIC 64 (Acinetobacter spp. (ACB); ACB, WT (10)): 100.0%
- Cumulative % inhibited at Cmpd. MIC ≦0.5 (Acinetobacter spp. (ACB); ACB, WT (10)): 0.0%
- MIC50 (Acinetobacter spp. (ACB); Acinetobacter, ACB isolates): 8 µg/mL (≈ 13.5 µM)
- MIC90 (Acinetobacter spp. (ACB); Acinetobacter, ACB isolates): 32 µg/mL (≈ 54 µM)
- area under the plasma concentration-time curve [3, 6]: 239 µg·h/mL
- fluctuation index [3, 6]: > 1000%
- trough (Cmin) [3, 6]: 0.4 µg/mL
- drug accumulation ([3]; once-daily dosing for up to 5 days): lack of appreciable drug accumulation
- AUC ([3]; plasma, intravenous, 15 mg/kg, read-out: average AUC in humans): ~240 µg·h/mL
- clearance [3, 7]: 1.1 mL/min/kg
- half-life [3, 7]: ~180 min
- Cmax ([3]; plasma, after 5 days of once-daily IV 15 mg/kg, read-out: peak (Cmax)): 113 µg/mL
- Vd ([3]; plasma, after 5 days of once-daily IV 15 mg/kg, read-out: steady state volume of distribution): 0.24 L/kg
- inhibition of the 5 major human CYPs [4]: did not inhibit
- in vitro stability [5]: stable
